Remaining activity and IC50 data for 1 compound are collected here from article PMC7765920 (Molecules, 2020).

pIC50: −log10 of the molar value. A value given as a limit tells only on which side of the number the result lay.

Test [1] deals with T1, human recombinant MAO-A (Homo sapiens, UniProt P21397).
T1 sequence (P21397 1-527): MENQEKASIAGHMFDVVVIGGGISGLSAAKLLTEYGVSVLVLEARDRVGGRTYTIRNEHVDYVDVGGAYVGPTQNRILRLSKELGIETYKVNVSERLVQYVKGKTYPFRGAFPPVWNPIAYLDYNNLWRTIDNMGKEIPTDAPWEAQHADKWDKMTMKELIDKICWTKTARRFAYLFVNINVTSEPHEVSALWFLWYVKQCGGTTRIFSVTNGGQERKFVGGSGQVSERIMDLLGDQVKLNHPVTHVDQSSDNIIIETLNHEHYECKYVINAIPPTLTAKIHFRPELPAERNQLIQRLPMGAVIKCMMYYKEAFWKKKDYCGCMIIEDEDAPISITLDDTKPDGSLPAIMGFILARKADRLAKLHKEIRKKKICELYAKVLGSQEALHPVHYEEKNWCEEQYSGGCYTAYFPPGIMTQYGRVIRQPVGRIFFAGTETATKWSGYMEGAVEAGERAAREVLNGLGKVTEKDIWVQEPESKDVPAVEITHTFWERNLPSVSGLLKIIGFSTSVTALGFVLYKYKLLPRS
The test can be described thus: MAO-GLO luminescence assay of MAO-A catalytic activity. The test is classed as biochemical. Particulars: 1 µM inhibitor concentration; residual activity relative to control without inhibitor; read-out: MAO-A residual activity.

Test [2] deals with T2, GST-DYRK1A-ΔC (amino acids 1–499 of rat DYRK1A) (Rattus norvegicus, UniProt Q63470).
T2 construct: containing amino acids 1–499 of rat DYRK1A; made in house; host or cells: E. coli
Put plainly: Kinase-GLO luminescent assay of DYRK1A catalytic activity. Format: biochemical. The settings on record: read-out: DYRK1A residual activity.

In test [3] the target is T1, human recombinant MAO-A. Details: method as in PMID 26192590. Particulars: 95% confidence intervals in parentheses; cited from earlier work.

As a reminder, the pIC50 is the IC50 on a negative log10 scale, so that one unit is a factor of ten. In the case of `COc1ccc2c3ccnc(Cl)c3n(CC#N)c2c1` [AnnH75, 2-(1-Chloro-7-methoxy-9H-pyrido[3,4-b]indol-9-yl)acetonitrile], the remaining activity at 1 µM in test [1] amounted to 119%; in test [2] it was 10%. Moreover, the pIC50 in test [3] is less than 5.00.
